Results reported in patent publication US12263176B2, “Pharmaceutical liquid compositions of meloxicam” (SLAYBACK PHARMA LLC, priority 2020, dated 2025).

Columns and labels:
[1] = following oral administration; cited from earlier work
[2] = cited from earlier work
[3] = system: acute post-operative pain (Brennan) model in Sprague Dawley rats; assay: Acute post-operative pain (Brennan) model, paw withdrawal latency / mechanical hyperalgesia; type: in vivo; settings: 3 mg/kg IV
Description: Animal Study: Evaluation of Efficacy of Meloxicam Compositions in Acute Post-operative Pain (Brennan) Model in Sprague Dawley Rats.
The analgesic efficacy of Composition K was studied in comparison with Anjeso® and ketorolac tromethamine drug products in a rat acute post-operative pain model at a dose of 3 mg/kg administered by intravenous route.
Meloxicam compositions (Anjeso® & Composition K) & ketorolac drug products were tested in an acute post-operative (Brennan) pain model in rats after intravenous administration. Average paw withdrawal latency & mechanical hyperalgesia (pain assessment) parameters were assessed in rats after intravenous administration of vehicle (0.9% saline), ketorolac tromethamine (3 mg/kg), Anjeso® (3 mg/kg), Composition K (3 mg/kg). Evaluations began 30 minutes following surgery, and were continued for 240 minutes.
Mean paw withdrawal latency was between 8.6 to 8.9 across all the treatment groups. […] Average paw withdrawal latency in normal animals is 9.7 seconds whereas as it was 3.5 seconds in operated animals.

SMILES | time of maximum observed plasma concentration (Tmax) [1] | solubility in methanol ([2]; methanol) | solubility in water ([2]; water) | increased average paw withdrawal latency compared with vehicle (0.9% saline) [3] | effect on development of mechanical allodynia ([3]; from 45 minutes till 240 minutes of recording, statistically significant at 45, 90 and 120 minutes)
Cc1cnc(NC(=O)C2=C(O)c3ccccc3S(=O)(=O)N2C)s1 [Meloxicam, 4-hydroxy-2-methyl-N-(5-methyl-2-thiazolyl)-2H-1,2-benzothiazine-3-carbox-amide-1,1-dioxide] | 5 to 6 h | very slightly soluble | practically insoluble |  | 
O=C(c1ccccc1)c1ccc2n1CCC2C(=O)O (centres unmarked) [ketorolac tromethamine] |  |  |  | 68% | significantly prevented the development of mechanical allodynia
